Series [1] concerns HMEC-1 cells. Nature of the series: AAPH-stimulated intracellular ROS generation, H2DCF-DA assay. The format is cell-based, human. The settings on record: for inhibitory activity on AAPH-induced intracellular ROS: HMEC-1, throughout the used range of concentrations (50-100 µM); for intracellular ROS level in comparison with control AAPH-oxidized cells: HMEC-1 pretreated 24 h with 50 to 75 µM, then AAPH 24 h. As for the experimental part:
(§1) The impact of investigated compounds on the level of intracellular reactive oxygen species and their ability to inhibit AAPH-stimulated intracellular ROS generation were assessed using a H2DCF-DA probe. Non-fluorescent H2DCF-DA is hydrolyzed intracellularly to form 2′,7′-dichlorodihydrofluorescein, which is oxidized by reactive oxygen species to the fluorescent 2′,7′-dichlorofluorescein. ROS production was estimated in HMEC-1 cells seeded on 96-well plates (5 × 10^3/well) and cultured for 12 to 24 h. After that time, the compounds were added at appropriate concentrations. The incubation was continued for another 24 h and 48 h at 37 °C under 5% CO2. In the case of AAPH-simulated ROS generation, the cells were incubated with extracts for 24 h. After incubation, the AAPH dissolved in culture medium was added to each well at the final concentration of 7.5 mM and incubated for the next 24 h. After that time, the cell monolayers were rinsed with HBSS containing 1% albumin and 5 µM of the fluorescence probe, 2′,7′-dichlorodihydrofluorescein diacetate (H2DCF-DA), was added. Immediately and after 0.5 h, 1 h, and 2 h incubation in the dark in standard conditions, the fluorescence was measured at λex = 485 nm and λem = 538 nm.
(§2) In the next step, DNA content was determined. For this purpose, after measurements, the cells were frozen at −70 °C. Next, the cells were thawed and re-frozen after the addition of […] of distilled water/well. Then, the cells were thawed again. After that, 5 µM of RNase was added to each well and incubated for 30 min in the dark at 37 °C. Next, 50 µL of 2.5 µM propidium iodide was added to the cells and incubated for 5 min in the same conditions. The fluorescence intensity of PI was measured at λex = 355 nm and λem = 620 nm. The rate of ROS generation was calculated according to the formula: (1) Rate of ROS=IFe1/IFe2/IFc1/IFc2⋅100% where IFe1 and IFe2 are fluorescence intensities of H2DCF-DA and PI in compound-modified or compound-modified and AAPH-oxidized cells, and IFc1 and IFc2 are fluorescence intensities of H2DCF-DA and PI in control or AAPH-oxidized control cells.

The test system of series [2] is MCF-7 breast cancer cells. The settings on record: cited from earlier work.
The next series deals with renal cell carcinoma. Details: method as in PMID 29742507. The settings on record: cited from earlier work.
Series [3] concerns HMEC-1 cells. As to the kind of experiment: intracellular ROS generation in non-oxidized cells, H2DCF-DA assay. The format is cell-based, human. The settings on record: 50-100 µM. As for the experimental part: as §1, §2
Series [4] relates to HMEC-1 cells. Nature of the series: viability of HMEC-1 cells, XTT and Hoechst 33342 assays. The format is cell-based, human. The settings on record: 48 h; for viability of endothelial cells compared with the control: HMEC-1, 100 µM, p < 0.01, both methods; for cytotoxicity: HMEC-1, 10-100 µM. As for the experimental part:
(§3) The effect of compounds on the viability of HMEC-1 cells was assessed by XTT (2,3-bis-(2-methoxy-4-nitro-5-sulfophenyl)-2H-tetrazolium-5-carboxanilide) and Hoechst 33342 assays. Briefly, 5 × 10^3 cells in 100 µL of the appropriate growth medium were plated in 96-well flat bottom clear microplates and cultured for 24 h at 37 °C in a humidified 5% CO2 incubator to ensure their logarithmic growth. […] A corresponding volume of 0.5% ethanol was added to the control wells. In parallel experiments, some of the cells were additionally incubated with doxorubicin in a concentration of 0.5 µM (a cytotoxic compound usually used as an anticancer drug). After incubation, the medium in the wells was aspirated, the cell monolayers were rinsed twice with pre-warmed (37 °C) PBS, and the cells were allowed to grow for an additional 48 h. After incubation, during the XTT assay, medium was removed by aspiration and 50 µL of XTT/PMS solution (10 µL of 10 mM PMS + 4 mL of 4 mg/mL XTT solution) was added to cells. Cells were incubated in the dark for 2 h (37 °C, 5% CO2). After incubation, the absorbance of the samples was read at 450 nm and 690 nm using an Epoch Microplate Spectrophotometer, BioTek Instruments, Inc., Winooski, Vermont, USA. The fraction of surviving treated cells was presented as a percentage of viable control (untreated) cells taken as 100%. In the Hoechst test, after incubation of cells with cyanidin and its glycosides, the medium was removed and the cells were washed twice with HBSS buffer containing 1% bovine serum albumin and frozen at −70 °C. Next, the cells were thawed at room temperature (RT) and re-frozen after the addition of […] of distilled water. After thawing the plates at room temperature, 100 µL of HVAB solution (0.5% Hoechst in TNE solution containing 2 M NaCl, 1 mM EDTA, 10 mM Tris-HCl, pH 7.4) were added to each well. Next, cells were incubated for 15 min in the dark at 37 °C, mixed, and the fluorescence intensity of the probe was measured at 355 and 460 nm for excitation and emission, respectively (Fluoroskan Ascent FL, Thermo Scientific, Waltham, MA, USA). Cell viability was calculated as the ratio of the fluorescence intensity of the Hoechst 33342 probe for compound-modified to -unmodified cells and expressed as a percentage.
For orientation: Tetrazolium assays rely on reduction of a dye to a coloured formazan, in cell work by metabolically active cells.

Assay in series [5]: as above
The class given is cell-based, human. The settings on record: human, HMEC-1 cells, HMEC-1, 100 µM, % of control, read-out: cell viability (XTT and Hoechst assay). As for the experimental part:
as §3

Series [6] concerns erythrocytes (RBCs). Nature of the series: protection of erythrocytes against AAPH-induced hemolysis. The format is cell-based, pig. As for the experimental part: Upon removal from plasma, the erythrocytes (RBCs) were washed four times in phosphate solution (pH 7.4) and then incubated in the same solution, but containing appropriate amounts of the compounds studied. The modification was conducted at 37 °C for 1 h, each 1 mL sample containing an RBC suspension of 1.2% hematocrit and 1 to 100 µM of compounds, stirred continuously. After the modification, 2 mL of phosphate buffer were added and samples were centrifuged, and the supernatant assayed for hemoglobin content using a spectrophotometer (Specord 40, Analytik Jena) at the 540 nm wavelength. To test the effect of compounds on hemolysis inducted by AAPH, RBCs were pre-incubated with varying concentrations of compounds at 37 °C for 1 h. Hemolysis of RBCs was carried out by mixing 3% suspension of RBCs (unmodified or modified by 2 to 20 µM of the compounds) in phosphate buffer with AAPH solution (final concentration 120 mM). This reaction mixture was incubated for 3 h at 37 °C. After incubation, samples were centrifuged for 15 min (2000× g, RT). The extent of hemolysis was determined spectrophotometrically by measuring the absorbance of the supernatant at 540 nm. Hemoglobin concentration in the supernatant, expressed as a percentage of the hemoglobin concentration in the supernatant of totally hemolyzed cells, was assumed as the measure of the extent of hemolysis.

Series [7] concerns erythrocytes (RBCs). Nature of the series: SEM assay of the shapes of erythrocytes. The format is cell-based, pig. The settings on record: 100 µM, 1 h. As for the experimental part: The effect of compounds on the shape of erythrocytes was investigated using a scanning electron microscope (SEM). […] Hematocrit concentration of the erythrocytes in the modification solution was 2%, the modification lasting 1 h at 37 °C. After modification, the erythrocytes where fixed for 48 h in a 2.5% solution of glutaraldehyde. After that, the preparations were washed in phosphate buffer for 20 min, and then the material was dehydrated in a rising series of acetone concentrations (30%, 50%, 60%, 70%, 80%, 90%, and 100%). Each sample was washed for 15 min in an appropriate concentration, the material remaining in pure acetone for 30 min. Next, the erythrocytes were dried for 12 h at room temperature. Erythrocytes thus prepared were deposited on object stages and subjected to x-ray microanalysis by means of an x-ray analyzer, Bruker AXS Quantax, collaborating with the ESPRIT ver. 1.8.2. software. Next, the samples were coated with gold using a Scancoat 6 (Edwards, London) sprinkler. The material ultrastructure was analyzed using a scanning microscope (EVO LS15 ZEISS) with an SE1 detector, under high vacuum and accelerating voltage, acceleration voltage (EHT) = 20 kV. Individual forms of erythrocyte cells were ascribed morphological indices according to the Bessis scale, which for stomatocytes assume negative values from −1 to −4, and for echinocytes from 1 to 4.

Series [8] relates to MCF-7, HuH-7, HepG2, Caco-2, and HUVEC. Details: method as in doi:10.3136/fstr.17.515. The settings on record: cited from earlier work.
The test system of series [9] is human peripheral blood mononuclear cells. Details: method as in PMID 17360708. The settings on record: cited from earlier work.
A further series has as its system RAW 264.7 cells. Set-up: method as in doi:10.1007/s10068-014-0279-x. The settings on record: 100 to 200 µg/mL; cited from earlier work.
In another series the test system is HL-60 cells. Details: method as in PMID 17360708. The settings on record: by the accumulation of peroxides; cited from earlier work.

One may read the viability as a read-out of living cells in per cent, often relative to untreated cells.

As for `CC(C)(N=NC(C)(C)C(=N)N)C(=N)N.Cl.Cl` [AAPH, 2,2′-azobis(2-amidinopropane) dihydrochloride, reference compound], the “increase in the ROS level” value with HMEC-1 cells [1] (HMEC-1, 24 h incubation with AAPH (7.5 mM), 37 °C) is “about 60%”.

On to `Oc1cc(O)c2cc(O)c(-c3ccc(O)c(O)c3)[o+]c2c1` [C, Cyanidin], for which the “inhibitory activity on AAPH-induced intracellular ROS” value (shortened to “inhibitory activity”) in the series on HMEC-1 cells [1] is reported as “does not cause any inhibitory activity”. For the same molecule, in series [2], the “cell proliferation and apoptosis” value is “inhibition of cell proliferation and increased apoptosis”. Moreover, the “percentage of apoptotic cells” value in the series with renal cell carcinoma (48 h at 0, 25, 50, and 100 μM) is “gradually increased”. In addition, the cell cycle arrest entry in the series with renal cell carcinoma (independently of the concentration) is “induced cell cycle arrest”. In addition, the “intracellular ROS level compared with control cells” value in the series on HMEC-1 cells [3] (HMEC-1, 24 h) is on record as “significant decrease”; in the series on HMEC-1 cells [3] (HMEC-1, 48 h), “decreased”. In addition, in the series on HMEC-1 cells [4], the “viability of endothelial cells compared with the control” value is listed as “decreased the viability”. Also, the viability at 48 h, 100 µM in series [5] lay in the range of 65 to 80%. For the same molecule, in the series with erythrocytes (RBCs) [6], the “antioxidant activity compared with CG, CA, and CGA” value is “did not observe any significant differences”. The “morphological index of induced echinocytes (Bessis scale)” value (“morphological index” for short) in the series with erythrocytes (RBCs) [7] is recorded as “+4”. In [8], the “intracellular ROS levels” value is on record as “decreased”.

For the molecule `Oc1cc(O)c2cc(OC3OCC(O)C(O)C3O)c(-c3ccc(O)c(O)c3)[o+]c2c1` (centres unmarked) [CA, cyanidin-3-O-arabinoside], the “intracellular ROS level in comparison with control AAPH-oxidized cells” value with HMEC-1 cells [1] is recorded as “significant decrease”. For the same molecule, the “intracellular ROS level compared with control cells” value was “significant decrease” in the series with HMEC-1 cells [3] (HMEC-1, 24 h) and “decreased” in the series on HMEC-1 cells [3] (HMEC-1, 48 h). Further, the “viability of endothelial cells compared with the control” value with HMEC-1 cells [4] is listed as “decreased the viability”. In addition, the viability at 48 h, 100 µM in series [5] lay within 60 to 85%. Further, the “level of RBCs' protection relative to CR and CDG” value in the series on erythrocytes (RBCs) [6] (compared with CR and CDG) is given as “better protection”. The “morphological index” value in the series on erythrocytes (RBCs) [7] is “+2”.

For the molecule `OCC1OC(Oc2cc3c(OC4OC(CO)C(O)C(O)C4O)cc(O)cc3[o+]c2-c2ccc(O)c(O)c2)C(O)C(O)C1O` (centres unmarked) [CDG, cyanidin-3-5-O-diglucoside], in the series with HMEC-1 cells [1] (HMEC-1, 100 µM), the “protective effect against AAPH-induced oxidative stress” value was “protective effect”. Also, in the series with HMEC-1 cells [1], the “inhibitory activity” value is reported as “strong inhibitory action” and the “intracellular ROS level in comparison with control AAPH-oxidized cells” value is “significant decrease”. In addition, in the series with HMEC-1 cells [3] (HMEC-1, 24 h), the “intracellular ROS level compared with control cells” value is listed as “significant decrease”. The “intracellular ROS level compared with control cells” value in the series on HMEC-1 cells [3] (HMEC-1, 48 h) is “decreased”. The cytotoxicity result in the series with HMEC-1 cells [4] is listed as “no cytotoxicity”. The “morphological index” value in the series with erythrocytes (RBCs) [7] is on record as “+1”.

Take `OCC1OC(Oc2cc3c(O)cc(O)cc3[o+]c2-c2ccc(O)c(O)c2)C(O)C(O)C1O` (centres unmarked) [CGA, cyanidin-3-O-galactoside]: in the series on HMEC-1 cells [3] (HMEC-1, 48 h), the “intracellular ROS level compared with control cells” value is reported as “decreased”.

On to `CC1OC(OCC2OC(Oc3cc4c(O)cc(O)cc4[o+]c3-c3ccc(O)c(O)c3)C(O)C(O)C2O)C(O)C(O)C1O` (centres unmarked) [CR, cyanidin-3-O-rutinoside], for which the “inhibitory activity” value in the series on HMEC-1 cells [1] was “does not cause any inhibitory activity”. In series [9], the toxicity result is recorded as “relatively low toxicity”. The “intracellular ROS level compared with control cells” value is given as “did not differ” in the series with HMEC-1 cells [3] (HMEC-1, 24 h) and “no significant difference” in the series with HMEC-1 cells [3] (HMEC-1, 48 h). In the series with HMEC-1 cells [4], the cytotoxicity result is “no cytotoxicity”. Also, in the series on RAW 264.7 cells, the “cell viability compared with control cells” value is on record as “significantly decreased”. Moreover, the “morphological index” value in the series with erythrocytes (RBCs) [7] is “+1”. For the same molecule, in the series on HL-60 cells, the apoptosis entry is “induce apoptosis”.

Values taken from PMC6514962, “The Impact of O-Glycosylation on Cyanidin Interaction with RBCs and HMEC-1 Cells—Structure–Activity Relationships” (International Journal of Molecular Sciences, 2019).
